Assay [1] has as its target T1, Heat shock protein HSP 90-alpha (Homo sapiens, UniProt P07900). Description: Inhibition of 6x-His tagged human recombinant full length Hsp90alpha ATPase preincubated for 0.5 hrs followed by ATP addition measured after 30 mins by HTRF assay. For orientation: TR-FRET usually uses a lanthanide donor and a delayed reading to cut background.
The test system of another assay is MCF7. Kind of assay: Antiproliferative activity against human MCF7 cells assessed as growth inhibition by MTT assay. Format: functional, cell-based. On the technique in general: Tetrazolium assays rely on reduction of a dye to a coloured formazan, in cell work by metabolically active cells.
A further assay has as its system A549. Description: Antiproliferative activity against human A549 cells assessed as growth inhibition by MTT assay. Format: functional, cell-based.
Assay [2] deals with SK-BR-3. Kind of assay: Antiproliferative activity against human SK-BR-3 cells assessed as growth inhibition by MTT assay. Format: functional, cell-based.
The subject of a further assay is HT-29. Kind of assay: Antiproliferative activity against human HT-29 cells assessed as growth inhibition by MTT assay. Format: functional, cell-based.
The next assay has as its system PC-3. Description: Antiproliferative activity against human PC3 cells assessed as growth inhibition by MTT assay. The class given is functional, cell-based.
For another assay, the system named is HepG2. Kind of assay: Antiproliferative activity against human HepG2 cells assessed as growth inhibition by MTT assay. The class given is functional, cell-based.
In assay [3] the target is T2, Heat shock protein HSP90 (Homo sapiens) (UniProt P07900+P08238). Description: Inhibition of Hsp90 in HUVEC assessed as downregulation of 1% hypoxia-induced HIF-1alpha expression measured over 8 hrs by Western blot analysis. The class given is cell-based. On the technique in general: Immunoblotting shows a protein as a band on a membrane.
Assay [4] concerns the target T1, Heat shock protein HSP 90-alpha. Kind of assay: Binding affinity to human recombinant full length biotinylated Hsp90alpha assessed as equilibrium dissociation constants by biolayer interferometric analysis.
Assay [5] has the same target. Kind of assay: Binding affinity to human recombinant full length Hsp90alpha assessed as change in melting temperature at 125 uM by fluorescence assay.
Assay [6] has the same target. Kind of assay: Binding affinity to human recombinant full length Hsp90alpha assessed as change in melting temperature at 250 uM by fluorescence assay.
For assay [7] the target is unchanged. Kind of assay: Binding affinity to human recombinant full length Hsp90alpha assessed as change in melting temperature at 500 uM by fluorescence assay.
Assay [8] shares this target. Description: Binding affinity to human recombinant full length Hsp90alpha assessed as change in melting temperature at 1 mM by fluorescence assay.
In assay [9] the test system is HUVEC. Description: Antiangiogenic activity against HUVEC assessed as inhibition of VEGF-induced cell migration incubated for 24 hrs by wound healing assay. The class given is functional, cell-based. The settings on record: Homo sapiens.
Assay [10] concerns HUVEC. Description: Antiangiogenic activity against inactivated HUVEC assessed as inhibition of tube formation at 0.25 uM incubated for 6 hrs by matrigel assay. The class given is functional, cell-based. The settings on record: Homo sapiens.
For assay [11], the target named is T2, Heat shock protein HSP90 (Homo sapiens). Description: Inhibition of Hsp90 in HUVEC assessed as repression of 1% hypoxia-induced VEGF mRNA expression at 0.1 uM measured over 8 hrs by RT-PCR analysis. Format: cell-based.
Assay [12] has the same target. Kind of assay: Inhibition of Hsp90 in HUVEC assessed as repression of 1% hypoxia-induced […] mRNA expression at 0.1 uM measured over 8 hrs by RT-PCR analysis. The class given is cell-based.
For assay [13] the target is unchanged. Kind of assay: Inhibition of Hsp90 in HUVEC assessed as repression of 1% hypoxia-induced Glut1 mRNA expression at 0.1 uM measured over 8 hrs by RT-PCR analysis. The class given is cell-based.
Assay [14] shares this target. Kind of assay: Inhibition of Hsp90 in human SK-BR-3 cells assessed as downregulation of Akt after 24 hrs by Western blot analysis. Format: cell-based.
Assay [15] has the same target. Description: Inhibition of Hsp90 in human SK-BR-3 cells assessed as downregulation of ERK1/2 after 24 hrs by Western blot analysis. The class given is cell-based.
Assay [16] deals with SK-BR-3. Kind of assay: Induction of apoptosis in human SK-BR-3 cells assessed as dead cells at 0.25 uM after 48 hrs by annexin v/PI-staining based flow cytometry (Rvb =1.3%). The class given is functional.
Assay [17] concerns SK-BR-3. Description: Induction of apoptosis in human SK-BR-3 cells assessed as late apoptotic cells at 0.25 uM after 48 hrs by annexin v/PI-staining based flow cytometry (reference value: 6.2%). Format: functional.
Assay [18] concerns SK-BR-3. Kind of assay: Induction of apoptosis in human SK-BR-3 cells assessed as early apoptotic cells at 0.25 uM after 48 hrs by annexin v/PI-staining based flow cytometry (reference value: 3.3%). Format: functional.
The subject of assay [19] is SK-BR-3. Description: Induction of apoptosis in human SK-BR-3 cells assessed as live cells at 0.25 uM after 48 hrs by annexin v/PI-staining based flow cytometry (reference value: 89.2%). The class given is functional.
For assay [20], the system named is SK-BR-3. Kind of assay: Induction of apoptosis in human SK-BR-3 cells assessed as dead cells at 0.5 uM after 48 hrs by annexin v/PI-staining based flow cytometry (Rvb =1.3%). The class given is functional.
Assay [21] has as its system SK-BR-3. Description: Induction of apoptosis in human SK-BR-3 cells assessed as late apoptotic cells at 0.5 uM after 48 hrs by annexin v/PI-staining based flow cytometry (reference value: 6.2%). Format: functional.
The test system of assay [22] is SK-BR-3. Description: Induction of apoptosis in human SK-BR-3 cells assessed as early apoptotic cells at 0.5 uM after 48 hrs by annexin v/PI-staining based flow cytometry (reference value: 3.3%). The class given is functional.
In assay [23] the test system is SK-BR-3. Description: Induction of apoptosis in human SK-BR-3 cells assessed as live cells at 0.5 uM after 48 hrs by annexin v/PI-staining based flow cytometry (reference value: 89.2%). The class given is functional.
In assay [24] the test system is SK-BR-3. Description: Induction of apoptosis in human SK-BR-3 cells assessed as dead cells at 1 uM after 48 hrs by annexin v/PI-staining based flow cytometry (Rvb =1.3%). Format: functional.
The test system of assay [25] is SK-BR-3. Kind of assay: Induction of apoptosis in human SK-BR-3 cells assessed as late apoptotic cells at 1 uM after 48 hrs by annexin v/PI-staining based flow cytometry (reference value: 6.2%). The class given is functional.
In assay [26] the test system is SK-BR-3. Description: Induction of apoptosis in human SK-BR-3 cells assessed as early apoptotic cells at 1 uM after 48 hrs by annexin v/PI-staining based flow cytometry (reference value: 3.3%). The class given is functional.
In assay [27] the test system is SK-BR-3. Description: Induction of apoptosis in human SK-BR-3 cells assessed as live cells at 1 uM after 48 hrs by annexin v/PI-staining based flow cytometry (reference value: 89.2%). The class given is functional.
Assay [28] deals with SK-BR-3. Kind of assay: Induction of apoptosis in human SK-BR-3 cells assessed as dead cells after 48 hrs by annexin v/PI-staining based flow cytometry (Rvb =1.3%). Format: functional, cell-based.
In assay [29] the test system is SK-BR-3. Kind of assay: Induction of apoptosis in human SK-BR-3 cells assessed as late apoptotic cells after 48 hrs by annexin v/PI-staining based flow cytometry (reference value: 6.2%). Format: functional, cell-based.
Assay [30] deals with SK-BR-3. Description: Induction of apoptosis in human SK-BR-3 cells assessed as early apoptotic cells after 48 hrs by annexin v/PI-staining based flow cytometry (reference value: 3.3%). Format: functional, cell-based.
Assay [31] concerns SK-BR-3. Description: Induction of apoptosis in human SK-BR-3 cells assessed as live cells after 48 hrs by annexin v/PI-staining based flow cytometry (reference value: 89.2%). The class given is functional, cell-based.
Assay [32] addresses T2, Heat shock protein HSP90 (Homo sapiens). Description: Inhibition of Hsp90 in human SK-BR-3 cells assessed as upregulation of Hsp70 at 0.02 to 0.2 uM after 24 hrs by Western blot analysis. The class given is cell-based.
Assay [33] relates to SK-BR-3. Kind of assay: Induction of apoptosis in human SK-BR-3 cells assessed as increase in caspase activity after 48 hrs by fluorimetric assay. Format: functional, cell-based.
In assay [34] the test system is SK-BR-3. Kind of assay: Induction of apoptosis in human SK-BR-3 cells assessed as nuclear condensation at 0.25 to 1 uM after 48 hrs by DAPI staining-based fluorescence analysis. Format: functional, cell-based.
Assay [35] relates to SK-BR-3. Kind of assay: Induction of apoptosis in human SK-BR-3 cells assessed as apoptotic body formation at 0.25 to 1 uM after 48 hrs by DAPI staining-based fluorescence analysis. Format: functional, cell-based.
The subject of assay [36] is SK-BR-3. Description: Induction of cell morphological changes in human SK-BR-3 cells assessed as cell distortion at 0.25 to 1 uM after 48 hrs by DAPI staining-based fluorescence analysis. The class given is functional.
Assay [37] has as its system SK-BR-3. Kind of assay: Induction of cell morphological changes in human SK-BR-3 cells assessed as cell membrane blebbing at 0.25 to 1 uM after 48 hrs by DAPI staining-based fluorescence analysis. Format: functional.
Assay [38] deals with SK-BR-3. Kind of assay: Induction of cell morphological changes in human SK-BR-3 cells assessed as cell shrinkage at 0.25 to 1 uM after 48 hrs by DAPI staining-based fluorescence analysis. The class given is functional.
Assay [39] has as its system SK-BR-3. Description: Induction of apoptosis in human SK-BR-3 cells after 48 hrs by annexin V/PI-staining based flow cytometry. Format: functional, cell-based.

In general, IC50 refers to the concentration at which inhibition is half-maximal. For orientation: Kd means the equilibrium constant for the complex coming apart. As usually defined, the ΔTm is the shift of the melting midpoint relative to a reference.

SMILES strings stand for the structures. Active and inactive are the calls of the source. No cut-off for these calls is given here.

With `CC(=O)Oc1cccc2c1C(=O)C1=CC3CC4COC(CC=C(C)C)(C3=O)C14O2` (stereo not given), the half-inhibitory concentration (IC50) in assay [1] stood at 52.7 µM.

Consider `CC(C)=CCC[C@]1(C)C=Cc2c(O)c3c(c(CC=C(C)C)c2O1)O[C@]12C(=C[C@@H]4C[C@H]1C(C)(C)O[C@@]2(C/C=C(/C)C(=O)O)C4=O)C3=O` [GAMBOGIC ACID], for which the IC50 amounted to 22 µM in assay [1]; 1250 nM in the assay with MCF7; 1200 nM in the assay with A549; 890 nM in the assay with SK-BR-3 [2]; 2370 nM in the assay on HT-29; 1190 nM with PC-3. Also, in the assay on HepG2, the IC50 was 2190 nM.

As for `CC(=O)Oc1cccc2c1C(=O)C1=CC3CC4C(C)(C)OC(CC=C(C)C)(C3=O)C14O2` (stereo not given), in assay [1], the IC50 was determined as 42.4 µM.

Regarding `C=CCC12OCC3CC(C=C4C(=O)c5ccccc5OC431)C2=O` (stereo not given), the IC50 in [1] is 28 µM.

On to `C/C(=C\CC12OC(C)(C)C3CC(C=C4C(=O)c5c(O)cccc5OC431)C2=O)CC=O` (stereo not given), for which, in [1], the IC50 is 22.6 µM.

Consider `CC(C)=CCC12OCC3CC(C=C4C(=O)c5c(O)cccc5OC431)C2=O` (stereo not given), for which the IC50 in assay [1] came out at 14.3 µM.

On to `CC(C)=CCC12OCC3CC(C=C4C(=O)c5c(cccc5OS(C)(=O)=O)OC431)C2=O` (stereo not given), for which the IC50 in assay [1] is 13.6 µM.

Regarding `COc1cccc2c1C(=O)C1=CC3CC4COC(CC=C(C)C)(C3=O)C14O2` (stereo not given), in assay [1], the IC50 is 54.7 µM.

Consider `C/C(=C\CC12OCC3CC(C1=O)C1OC14C(=O)c1c(O)cccc1OC324)CC=O` (stereo not given), for which the IC50 in assay [1] was determined as 36.6 µM.

Take `C/C(=C\CC12OCC3CC(C1=O)C1OC14C(=O)c1c(O)cccc1OC324)CC(=O)O` (stereo not given): the IC50 in [1] was 43 µM.

Take `C/C(=C\CC12OCC3CC(C=C4C(=O)c5c(O)cccc5OC431)C2=O)CO` (stereo not given): the inhibition result in assay [3], in assay [14] and in assay [15] was “Dose-dependent effect” each time. Further, the IC50 in assay [1] came to 3.68 µM; in the assay with MCF7, 2890 nM; in the assay on A549, 3250 nM; with SK-BR-3 [2], 1920 nM; with HT-29 it was 3020 nM; in the assay on PC-3, 2160 nM. Besides, in the assay on HepG2, the 50% inhibitory concentration (IC50) was 3340 nM. Further, the dissociation constant Kd in assay [4] came to 38 µM. Further, the ΔTm came out at 0.95 °C in [5], 1.64 °C in assay [6], 2.12 °C in assay [7] and 4.7 °C in assay [8]. Moreover, the Activity result was “Dose-dependent effect” in the assay on HUVEC [9]; 0.95% in the assay on SK-BR-3 [16]; 13.4% with SK-BR-3 [17]; 7.5% with SK-BR-3 [18]; 78.15% in the assay on SK-BR-3 [19]; 2.35% with SK-BR-3 [20]. Besides, the Activity was found to be 21.45% with SK-BR-3 [21]; 16.65% with SK-BR-3 [22]; 59.58% in the assay on SK-BR-3 [23]; 5.7% in the assay with SK-BR-3 [24]; 35.7% in the assay on SK-BR-3 [25]; 8.6% in the assay on SK-BR-3 [26]. In addition, the Activity with SK-BR-3 [27] was 50%; in the assay on SK-BR-3 [28], “Dose-dependent effect”; in the assay on SK-BR-3 [29], “Dose-dependent effect”; in the assay on SK-BR-3 [30] it was “Dose-dependent effect”; in the assay with SK-BR-3 [31], “Dose-dependent effect”; in the assay on SK-BR-3 [33] it was “Dose-dependent effect”. Further, the Activity result with SK-BR-3 [39] is “Dose-dependent effect”. In addition, the inhibition entry (with HUVEC [10]; in assay [11]; in assay [12]; in assay [13]) was “Active” throughout. Besides, in assay [32], the inhibition result was “inactive”. Besides, the result in the assay with SK-BR-3 [34], in the assay with SK-BR-3 [35], in the assay on SK-BR-3 [36], in the assay on SK-BR-3 [37] and in the assay with SK-BR-3 [38] was Active.
